In test [1] the target is recombinant human dipeptidyl peptidase IV (DPPIV) (Homo sapiens, UniProt P27487). The test can be described thus: Selective assay, protease inhibition (DPPIV). Format: biochemical. The following applies: substrate Gly-Pro-AMC; read-out: pIC50 (DPPIV) (converted). On the procedure:
The specificity of the synthesized compounds against recombinant human dipeptidyl peptidase IV (DPPIV), fibroblast activation protein (FAP), or prolyl oligopeptidase (PREP) was expressed by their half-maximal inhibitory concentration (IC50) against the proteases.
1) The synthesized compound was dissolved in DMSO to a final concentration of 100 mM.
b) For DPPIV assay: The test compound was diluted to a 1 mM solution using a buffer of 25 mM Tris, 250 mM NaCl at pH 7.5.
2) The prepared 1 mM test compound solution was serially diluted (1:10) into a row of a 96-well plate using the corresponding buffer mentioned above.
3) The substrate was prepared as a DMSO stock solution (FAP and PREP: 2.5 mM Z-Gly-Pro-AMC (VWR, Cat. No. I-1145.0050BA) in DMSO; DPPIV: 100 mM Gly-Pro-AMC (VWR, Cat. No. 100042-646) in DMSO), and subsequently the substrate stock solution was diluted 20-fold using the corresponding buffer mentioned above.
4) The enzyme was diluted into the appropriate assay buffer. The final concentrations of DPPIV, FAP, and PREP were […], respectively. To each required well in columns 2-10, 180 μL was added separately. Column 1 (A, B, C) was prepared with 200 μL of the appropriate assay buffer as a control. […]
7) Fluorescence was measured at λex: 380, λem: 460. […]

Another test concerns the target T1, FAP protein (Homo sapiens, UniProt Q12884).
T1 construct: purchased Sinobiological
T1 sequence (Q12884 1-760): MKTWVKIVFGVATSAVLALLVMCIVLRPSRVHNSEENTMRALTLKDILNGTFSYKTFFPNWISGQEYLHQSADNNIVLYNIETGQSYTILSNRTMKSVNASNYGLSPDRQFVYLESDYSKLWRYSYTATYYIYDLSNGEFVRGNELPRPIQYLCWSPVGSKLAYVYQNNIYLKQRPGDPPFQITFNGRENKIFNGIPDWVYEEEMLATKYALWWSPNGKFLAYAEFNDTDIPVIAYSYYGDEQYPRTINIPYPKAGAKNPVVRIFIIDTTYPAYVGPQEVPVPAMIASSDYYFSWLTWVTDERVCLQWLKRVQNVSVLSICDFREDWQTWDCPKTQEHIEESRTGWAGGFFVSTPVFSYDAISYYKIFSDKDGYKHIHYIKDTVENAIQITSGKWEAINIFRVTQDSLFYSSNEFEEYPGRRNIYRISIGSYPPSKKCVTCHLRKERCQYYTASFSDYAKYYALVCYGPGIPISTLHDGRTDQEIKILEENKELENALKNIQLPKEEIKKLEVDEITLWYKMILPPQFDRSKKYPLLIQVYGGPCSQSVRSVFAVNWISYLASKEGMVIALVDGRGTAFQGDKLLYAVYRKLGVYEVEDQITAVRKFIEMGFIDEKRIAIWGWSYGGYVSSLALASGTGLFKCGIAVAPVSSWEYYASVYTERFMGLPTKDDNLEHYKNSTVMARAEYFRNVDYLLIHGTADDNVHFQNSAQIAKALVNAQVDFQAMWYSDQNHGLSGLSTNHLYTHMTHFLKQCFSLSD
The experiment in a line: Biacore test of ligand binding to FAP protein. Particulars: FAP protein on SA chip, 15° C., 1:1 binding model. On the procedure: The Biacore 8K (Cytiva) instrument was used to detect ligand binding of the FAP protein (Sinobiological). The FAP protein was captured on the SA chip. Before ligand immobilization (flow paths 1 and 2, flow rate of 10 μL/min), the FAP protein (10 μg/mL, flow rate of 5 μL/min, injection time of 600 s) was immobilized on flow path 2 using running buffer, and the sensor surface was conditioned with three consecutive injections of 1 M NaCl in 50 mM NaOH. After each ligand injection, additional washing was carried out with isopropanol in 1 M NaCl and 50 mM NaOH (flow paths 1 and 2, flow rate of 10 μL/min, injection time of 60 s).
The test compounds were dissolved in 100% dimethyl sulfoxide and diluted to 10 mM, then further diluted in the assay buffer (PBS, pH 7.4, 1 mM TCEP ([…]), 0.05% P20, 2% dimethyl sulfoxide) to appropriate maximum concentrations. The analyte was run under the following conditions: analysis temperature=15° C., analysis step=all set to LMW kinetics; cycle type=single cycle (90 s contact time, 1800 s dissociation time, 30 μL/min flow rate, flow channels 1, 2); flow channel detection=2-1). Data evaluation was performed using Biacore Insight Evaluation Software, and the data were fitted to a 1:1 binding model.
The Biacore results are shown in Table 1: pKD=−Log KD, where KD is the binding affinity of the compound to the FAP protein as measured by Biacore. The binding affinity is expressed by KD (M)=Kd(1/s)/Ka(1/Ms). Where A: pKD>8, B: 7<pKD<8, C: 6<pKD<7, D: pKD<6.
Background: In SPR one partner is held on a chip, and binding of the other changes the refractive index at the surface.

Where only a bound is given, the exact number is not on record here.

Sequence of recombinant human dipeptidyl peptidase IV (DPPIV) (P27487 whole entry): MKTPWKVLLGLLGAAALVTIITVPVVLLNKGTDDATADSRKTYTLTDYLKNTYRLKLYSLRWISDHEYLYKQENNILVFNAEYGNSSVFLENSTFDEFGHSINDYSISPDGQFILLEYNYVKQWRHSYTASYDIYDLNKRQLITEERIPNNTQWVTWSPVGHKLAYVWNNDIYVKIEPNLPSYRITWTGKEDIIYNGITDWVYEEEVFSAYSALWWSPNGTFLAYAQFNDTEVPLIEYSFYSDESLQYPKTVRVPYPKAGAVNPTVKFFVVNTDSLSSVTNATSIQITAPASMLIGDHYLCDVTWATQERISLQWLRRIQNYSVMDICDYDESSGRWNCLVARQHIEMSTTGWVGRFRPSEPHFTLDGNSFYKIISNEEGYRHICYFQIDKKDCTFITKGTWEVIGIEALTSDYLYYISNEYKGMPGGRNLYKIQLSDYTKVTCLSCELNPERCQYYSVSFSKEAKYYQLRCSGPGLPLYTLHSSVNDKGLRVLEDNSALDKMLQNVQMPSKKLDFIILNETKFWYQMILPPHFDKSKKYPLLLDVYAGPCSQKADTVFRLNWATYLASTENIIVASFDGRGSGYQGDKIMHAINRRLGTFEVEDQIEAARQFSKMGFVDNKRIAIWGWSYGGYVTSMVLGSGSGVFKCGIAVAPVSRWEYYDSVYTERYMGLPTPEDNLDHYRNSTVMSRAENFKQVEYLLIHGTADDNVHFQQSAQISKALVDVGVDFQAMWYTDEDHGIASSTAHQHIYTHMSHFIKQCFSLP

As for `N#C[C@@H]1CC(F)(F)CN1C(=O)CNC(=O)c1cccc2c1CCN(C(=O)CCC(=O)NCCNC(=O)CCC(C(=O)O)N1CCN(CC(=O)O)CCN(CC(=O)O)CCN(CC(=O)O)CC1)C2` (some centres unmarked) [JHH5], in test [1], the IC50 was greater than 1000 nM. The Kd – broadly, the free concentration of one partner at which half of the binding sites on the other are occupied at equilibrium, for simple one-to-one binding – on FAP protein is less than 10 nM.
